One test deals with Haemophilus influenzae. The test can be described thus: In vitro antimicrobial activity against Haemophilus influenzae. It is filed as functional.
The subject of the next test is Staphylococcus aureus. The test can be described thus: In vitro antimicrobial activity against Staphylococcus aureus X1. In kind it is functional.
Another test relates to Streptococcus pneumoniae. The experiment in a line: In vitro antimicrobial activity against Streptococcus pneumoniae. In kind it is functional.
The subject of test [1] is Staphylococcus epidermidis. The test can be described thus: In vitro antimicrobial activity against Staphylococcus epidermidis EPI1. In kind it is functional.
The next test has as its system Enterococcus faecium. The experiment in a line: In vitro antimicrobial activity against Streptococcus faecium X66. In kind it is functional, streptococcus fae-cium.
The test system of a further test is Streptococcus pyogenes. The experiment in a line: In vitro antimicrobial activity against Streptococcus pyogenes C203. In kind it is functional.

In ChEMBL document CHEMBL1124186, “Synthesis and evaluation of tylosin-related macrolides modified at the aldehyde function: a new series of orally effective antibiotics” (1988) one finds MIC data, which are given here for 15 compounds.

Molecules are shown by their SMILES. Values after ≈ are worked out from the molar mass of the structure shown.

Take `CC[C@H]1OC(=O)C[C@@H](O)[C@H](C)[C@@H](O[C@@H]2O[C@H](C)[C@@H](O)[C@H](N(C)C)[C@H]2O)[C@@H](CC=O)C[C@@H](C)C(=O)/C=C/C(C)=C/[C@@H]1C`: the MIC against Haemophilus influenzae is 1 mg/L (≈ 1.72 µM); against Staphylococcus aureus, 0.25 mg/L (≈ 0.43 µM); against Streptococcus pneumoniae, 0.12 mg/L (≈ 0.206 µM); in test [1] it was 0.25 mg/L (≈ 0.43 µM); in the test on Enterococcus faecium, 0.5 mg/L (≈ 0.859 µM); with Streptococcus pyogenes, 0.25 mg/L (≈ 0.43 µM).
As for `CC[C@H]1OC(=O)C[C@@H](O)[C@H](C)[C@@H](O[C@@H]2O[C@H](C)[C@@H](O)[C@H](N(C)C)[C@H]2O)[C@@H](CCOc2cccc(N(C)C)c2)C[C@@H](C)C(=O)/C=C/C(C)=C/[C@@H]1CO[C@@H]1O[C@H](C)[C@@H](O)[C@@H](OC)[C@H]1OC`, the MIC against Staphylococcus aureus came to 0.5 mg/L (≈ 0.56 µM); with Streptococcus pneumoniae it was 1 mg/L (≈ 1.12 µM); in test [1], 0.5 mg/L (≈ 0.56 µM); against Enterococcus faecium it was 4 mg/L (≈ 4.48 µM); in the test on Streptococcus pyogenes, 0.25 mg/L (≈ 0.28 µM).
As to `CC[C@H]1OC(=O)C[C@@H](O)[C@H](C)[C@@H](O[C@@H]2O[C@H](C)[C@@H](O[C@H]3C[C@@](C)(O)[C@@H](O)[C@H](C)O3)[C@H](N(C)C)[C@H]2O)[C@@H](CCN2C(=O)c3ccccc3C2=O)C[C@@H](C)C(=O)/C=C/C(C)=C/[C@@H]1C`, the MIC is above 128 mg/L in the test on Haemophilus influenzae; 64 mg/L (≈ 74.7 µM) against Staphylococcus aureus; 8 mg/L (≈ 9.33 µM) in the test with Streptococcus pneumoniae; 64 mg/L (≈ 74.7 µM) in test [1]; 128 mg/L (≈ 149 µM) in the test on Enterococcus faecium; 64 mg/L (≈ 74.7 µM) against Streptococcus pyogenes.
As to `CC[C@H]1OC(=O)C[C@@H](O)[C@H](C)[C@@H](O[C@@H]2O[C@H](C)[C@@H](O[C@H]3C[C@@](C)(O)[C@@H](O)[C@H](C)O3)[C@H](N(C)C)[C@H]2O)[C@@H](CCO)C[C@@H](C)C(=O)/C=C/C(C)=C/[C@@H]1CO`, the MIC was above 128 mg/L in the test on Haemophilus influenzae; above 128 mg/L in the test on Staphylococcus aureus; 64 mg/L (≈ 86 µM) against Streptococcus pneumoniae; 128 mg/L (≈ 172 µM) in test [1]; above 128 mg/L with Enterococcus faecium; 64 mg/L (≈ 86 µM) against Streptococcus pyogenes.
For the compound `CC[C@H]1OC(=O)C[C@@H](O)[C@H](C)[C@H]2OCC[C@H]2C[C@@H](C)C(=O)/C=C/C(C)=C/[C@@H]1CO[C@@H]1O[C@H](C)[C@@H](O)[C@@H](OC)[C@H]1OC`, the MIC (with Haemophilus influenzae; in the test on Staphylococcus aureus; against Streptococcus pneumoniae; in test [1]; with Enterococcus faecium; against Streptococcus pyogenes) was above 128 mg/L each time.
In the case of `CC[C@H]1OC(=O)C[C@@H](O)[C@H](C)[C@@H](O[C@@H]2O[C@H](C)[C@@H](O[C@H]3C[C@@](C)(O)[C@@H](O)[C@H](C)O3)[C@H](N(C)C)[C@H]2O)[C@@H](CCF)C[C@@H](C)C(=O)/C=C/C(C)=C/[C@@H]1CO[C@@H]1O[C@H](C)[C@@H](O)[C@@H](OC)[C@H]1OC`, the MIC is above 128 mg/L with Haemophilus influenzae; 1 mg/L (≈ 1.09 µM) in the test with Staphylococcus aureus; 64 mg/L (≈ 69.6 µM) with Streptococcus pneumoniae; 1 mg/L (≈ 1.09 µM) in test [1]; above 128 mg/L against Enterococcus faecium; 4 mg/L (≈ 4.35 µM) with Streptococcus pyogenes.
Consider `CC[C@H]1OC(=O)C[C@@H](O)[C@H](C)[C@@H](O[C@@H]2O[C@H](C)[C@@H](O)[C@H](N(C)C)[C@H]2O)[C@@H](CCN2C(=O)c3ccccc3C2=O)C[C@@H](C)C(=O)/C=C/C(C)=C/[C@@H]1C`, for which the MIC against Haemophilus influenzae was found to be 128 mg/L (≈ 180 µM); with Staphylococcus aureus it was 8 mg/L (≈ 11.2 µM); with Streptococcus pneumoniae it was 64 mg/L (≈ 89.8 µM); in test [1], 8 mg/L (≈ 11.2 µM); against Enterococcus faecium it was 32 mg/L (≈ 44.9 µM); against Streptococcus pyogenes, 64 mg/L (≈ 89.8 µM).
With `CC[C@H]1OC(=O)C[C@@H](O)[C@H](C)[C@@H](O[C@@H]2O[C@H](C)[C@@H](O)[C@H](N(C)C)[C@H]2O)[C@@H](CCOc2ccc(C=O)cc2)C[C@@H](C)C(=O)/C=C/C(C)=C/[C@@H]1CO[C@@H]1O[C@H](C)[C@@H](O)[C@@H](OC)[C@H]1OC`, the MIC turned out to be 16 mg/L (≈ 18.2 µM) in the test with Haemophilus influenzae; 0.25 mg/L (≈ 0.285 µM) against Staphylococcus aureus; 1 mg/L (≈ 1.14 µM) against Streptococcus pneumoniae; 0.25 mg/L (≈ 0.285 µM) in test [1]; 4 mg/L (≈ 4.56 µM) against Enterococcus faecium; 1 mg/L (≈ 1.14 µM) against Streptococcus pyogenes.
`CC[C@H]1OC(=O)C[C@@H](O)[C@H](C)[C@@H](O[C@@H]2O[C@H](C)[C@@H](O[C@H]3C[C@@](C)(O)[C@@H](O)[C@H](C)O3)[C@H](N(C)C)[C@H]2O)[C@@H](CCSc2ccccc2)C[C@@H](C)C(=O)/C=C/C(C)=C/[C@@H]1CO[C@@H]1O[C@H](C)[C@@H](O)[C@@H](OC)[C@H]1OC`: the MIC in the test with Haemophilus influenzae was above 128 mg/L; against Staphylococcus aureus, 1 mg/L (≈ 0.99 µM); in the test with Streptococcus pneumoniae, 64 mg/L (≈ 63.3 µM); in test [1], 2 mg/L (≈ 1.98 µM); with Enterococcus faecium, above 128 mg/L; in the test on Streptococcus pyogenes it was 4 mg/L (≈ 3.96 µM).
`CC[C@H]1OC(=O)C[C@@H](O)[C@H](C)[C@@H](O[C@@H]2O[C@H](C)[C@@H](O[C@H]3C[C@@](C)(O)[C@@H](O)[C@H](C)O3)[C@H](N(C)C)[C@H]2O)[C@@H](CCOc2ccc([N+](=O)[O-])cc2)C[C@@H](C)C(=O)/C=C/C(C)=C/[C@@H]1CO[C@@H]1O[C@H](C)[C@@H](O)[C@@H](OC)[C@H]1OC`: the MIC against Haemophilus influenzae is above 128 mg/L; against Staphylococcus aureus, 1 mg/L (≈ 0.962 µM); in the test on Streptococcus pneumoniae it was 16 mg/L (≈ 15.4 µM); in test [1], 1 mg/L (≈ 0.962 µM); with Enterococcus faecium it was 128 mg/L (≈ 123 µM); against Streptococcus pyogenes it was 2 mg/L (≈ 1.92 µM).
With `CC[C@H]1OC(=O)C[C@@H](O)[C@H](C)[C@@H](O[C@@H]2O[C@H](C)[C@@H](O[C@H]3C[C@@](C)(O)[C@@H](O)[C@H](C)O3)[C@H](N(C)C)[C@H]2O)[C@@H](CCOc2ccc(-c3ccccc3)cc2)C[C@@H](C)C(=O)/C=C/C(C)=C/[C@@H]1CO[C@@H]1O[C@H](C)[C@@H](O)[C@@H](OC)[C@H]1OC`, the MIC in the test on Haemophilus influenzae is above 128 mg/L; against Staphylococcus aureus, 2 mg/L (≈ 1.87 µM); against Streptococcus pneumoniae, 1 mg/L (≈ 0.934 µM); in test [1], 2 mg/L (≈ 1.87 µM); against Enterococcus faecium it was 8 mg/L (≈ 7.47 µM); against Streptococcus pyogenes, 2 mg/L (≈ 1.87 µM).
For `CC[C@H]1OC(=O)C[C@@H](O)[C@H](C)[C@@H](O[C@@H]2O[C@H](C)[C@@H](O[C@H]3C[C@@](C)(O)[C@@H](O)[C@H](C)O3)[C@H](N(C)C)[C@H]2O)[C@@H](C)C[C@@H](C)C(=O)/C=C/C(C)=C/[C@@H]1CO`, the MIC against Haemophilus influenzae is above 128 mg/L; in the test on Staphylococcus aureus, 64 mg/L (≈ 89.6 µM); against Streptococcus pneumoniae, 64 mg/L (≈ 89.6 µM); in test [1], 16 mg/L (≈ 22.4 µM); against Enterococcus faecium it was 128 mg/L (≈ 179 µM); in the test with Streptococcus pyogenes it was 64 mg/L (≈ 89.6 µM).
Turning to `CC[C@H]1C[C@@H](C)C(=O)/C=C/C(C)=C/[C@H](CO[C@@H]2O[C@H](C)[C@@H](O)[C@@H](O)[C@H]2OC)[C@@H](CC)OC(=O)C[C@@H](O)[C@H](C)[C@H]1O[C@@H]1O[C@H](C)[C@@H](O)[C@H](N(C)C)[C@H]1O`, the MIC against Staphylococcus aureus is 0.25 mg/L (≈ 0.336 µM); in the test with Streptococcus pneumoniae, 4 mg/L (≈ 5.38 µM); in test [1], 1.2 mg/L (≈ 1.61 µM); against Enterococcus faecium, 8 mg/L (≈ 10.8 µM); against Streptococcus pyogenes it was 0.5 mg/L (≈ 0.672 µM).
The matching figures for `CC[C@H]1OC(=O)C[C@@H](O)[C@H](C)[C@@H](O[C@@H]2O[C@H](C)[C@@H](O)[C@H](N(C)C)[C@H]2O)[C@@H](CCOc2ccc(OC)cc2)C[C@@H](C)C(=O)/C=C/C(C)=C/[C@@H]1CO[C@@H]1O[C@H](C)[C@@H](O)[C@@H](OC)[C@H]1OC`: 0.25 mg/L (≈ 0.284 µM), 1 mg/L (≈ 1.14 µM), 0.25 mg/L (≈ 0.284 µM), 4 mg/L (≈ 4.55 µM) and 1 mg/L (≈ 1.14 µM).
The matching figures for `CC[C@H]1OC(=O)C[C@@H](O)[C@H](C)[C@@H](O[C@@H]2O[C@H](C)[C@@H](O)[C@H](N(C)C)[C@H]2O)[C@@H](CCOCCc2ccccc2)C[C@@H](C)C(=O)/C=C/C(C)=C/[C@@H]1CO[C@@H]1O[C@H](C)[C@@H](O)[C@@H](OC)[C@H]1OC`: 0.25 mg/L (≈ 0.285 µM), 0.25 mg/L (≈ 0.285 µM), 0.25 mg/L (≈ 0.285 µM), 8 mg/L (≈ 9.11 µM) and 1 mg/L (≈ 1.14 µM).
